From patent publication US12410237B2, “Methods for purifying proteins having a tubulin carboxypeptidase activity and peptidic based inhibitors thereof” (CENTRE NATIONAL DE LA RECHERCHE SCIENTIFIQUE, priority 2017, dated 2025)
Entries after “also recorded” stand apart in the source; their conditions may differ.

How the values were obtained:
[1] = test system: native TCPase activity in brain MAPs; experiment: detyrosination assay with 3H-tyrosine labelled microtubules and isolated brain MAPs; assay type: biochemical, pig; details: for inhibition of TCP activity in the MAPs fraction by peptides (in words): brain-derived MAPs, FIG. 11A; for inhibition of native TCPase activity in brain MAPs (in words): protease inhibitor treatment of brain MAPs, FIG. 5
Description: An assay involving radioactively labelled tyrosine (^3H—Y) was used to quantitatively determine the TCPase activity. Brain tubulin was isolated and purified and radioactively labelled with *Y by recombinant TTL. To do so, recombinant bacterially expressed purified TTL (>90% purity) was put in contact with micrograms of pig brain purified tubulin. The reaction sample was incubated for one hour at 37° C. in presence of radioactively labelled ^3H—Y and ATP. Following incorporation of ^3H—Y to tubulin, a polymerization cycle was performed by adding GTP and incubating for 30 min at 37° C. Next the samples are centrifuged and the obtained pellet was washed twice with PEM buffer. The resulting radioactively labelled MTs were store at −80° C. until further testing. […] After obtaining both purified recombinant TCPase candidate and radioactively labelled MTs, the proteins were put into contact and various amounts of TCPase were presented to MTs. Removal of the radioactive tyrosine by the candidate detyrosinase was measured by quantification of radioactivity in both the soluble and insoluble fraction of the reaction using a liquid scintillator counter.
To further gain insights in the potential protease that could embody the TCPase activity, the isolated MAPs from crude brain extracts were exposed to a selection of specific Cysteine, Aspartic, Metallo and Serine proteinase inhibitors were tested on the extract.
Recombinant bacterially expressed purified TTL (>90% purity) was put in contact with micrograms of pig brain purified tubulin. The reaction sample was incubated for one hour at 37° C. in presence of radioactively labeled ^3H—Y and ATP. Following incorporation of ^3H—Y to tubulin, a polymerization cycle was performed by adding GTP and incubating for 30 min at 37° C. Next, the samples were centrifuged and the obtained pellet was washed twice with PEM buffer. The resulting radioactively labeled MTs were store at −80° C. until further testing. The isolated MAPs from crude brain extracts (as obtained in example 1) were contacted to the radioactively labeled MTs in absence or presence of different peptidic inhibitors or an increasing concentration of peptidic inhibitor. Release of radioactive tyrosine by native TCPase containing brain MAPs was measured by quantification of radioactivity in both the soluble and insoluble fraction of the reaction using a liquid scintillator counter.

C2C12 cells = experiment: C2C12 myogenic differentiation, immunoblot of tubulin detyrosination and acetylation; assay type: cell-based, mouse; details: C2C12 myogenic differentiation time-course, FIG. 12
Description: C2C12 cells is an immortal cell line of mouse skeletal myoblasts originally derived from satellite cells from the thigh muscle cells. C2C12 cells were routinely grown at 37° C. in a CO2 incubator. Myogenic differentiation is initiated upon reaching confluence by switching the cells to medium containing 2% horse serum. Cells were collected at start of the myogenic differentiation and every two days over a period of 6 days for molecular analysis.
To further study the use of a TCPase inhibitor, C2C12 cells were treated with or without EEY peptide (FIG. 12). The protein expression of Myosin was monitored by western blotting as control for muscle differentiation. Vinculin acts as loading control. Acetylation and detyrosination of the microtubules was assessed. Whereas acetylation increases during differentiation (Ac-Tubulin) no difference in the status could be observed in the treated cells.

| inhibition of TCP activity in the MAPs fraction by peptides (in words) [1] | Compound | acetylation of the microtubules (Ac-Tubulin) (C2C12 cells) | tubulin detyrosination levels (Δ1-tubulin) (C2C12 cells) | inhibition of native TCPase activity in brain MAPs (in words) [1] |
| --- | --- | --- | --- | --- |
| almost fully inhibited | EEY: tripeptide EEY inspired by the C-terminal sequence of alpha-tubulin, TCP inhibitor | no difference | clearly inhibited detyrosination; also recorded: decrease | – |
| partially blocked | EDY: three amino acid peptide EDY inspired by the C-terminal sequence of tubulin | – | – | – |
| – | NC(=O)CI [Iodoacetamide, reference compound] | – | – | complete inhibition |
| – | CC(C)C[C@H](NC(=O)[C@H]1O[C@@H]1C(=O)O)C(=O)NCCCCN=C(N)N [E64, reference compound] | – | – | complete inhibition |
